Measured values published in US20010034357A1, “Substituted pyridine compounds useful for controlling chemical synaptic transmission” (priority 2000, published 2001).
Read-outs that look alike come from different tables or passages of the source.

Legend:
[1] = biological target: T1, neuronal nicotinic acetylcholine receptors (Rattus norvegicus, UniProt P09483+P12390); assay: [3H]-cytisine binding to neuronal nicotinic acetylcholine receptors, crude synaptic membranes from whole rat brain
T1 construct: crude synaptic membrane preparations from whole rat brain; from tissue; host or cells: whole rat brain, crude synaptic membranes
Description: The in vitro protocols for determination of nicotinic acetylcholine channel receptor binding potencies of ligands was determined as follows.
Binding of [^3H]-cytisine ([^3H]-CYT) to neuronal nicotinic acetylcholine receptors was accomplished using crude synaptic membrane preparations from whole rat brain (Pabreza et al., Molecular Pharmacol., 1990, 39:9). Washed membranes were stored at −80° C. prior to use. Frozen aliquots were slowly thawed and resuspended in 20 volumes of buffer (containing: 120 mM NaCl, 5 mM KCl, 2 mM MgCl2, 2 mM CaCl2 and 50 mM Tris-Cl, pH 7.4 @4° C.). After centrifuging at 20,000×g for 15 minutes, the pellets were resuspended in 30 volumes of buffer.
The test compounds were dissolved in water to make 10 mM stock solutions. Each solution was then diluted (1:100) with buffer (as above) and further taken through seven serial log dilutions to produce test solutions from 10^−5 to 10^−11 M.
Homogenate (containing 125-150 µg protein) was added to triplicate tubes containing the range of concentrations of test compound described above and [^3H]-CYT (1.25 nM) in a final volume of 500 μL. Samples were incubated for 60 minutes at 4° C., then rapidly filtered through Whatman GF/B filters presoaked in 0.5% polyethyleneimine using 3×4 mL of ice-cold buffer. The filters are counted in 4 mL of Ecolume® (ICN). Nonspecific binding was determined in the presence of 10 μM (−)-nicotine and values were expressed as a percentage of total binding. IC50 values were determined with a four-parameter non-linear regression and IC50 values were converted to K1 values using the Cheng and Prusoff correction (K1=IC50/(1+[ligand]/Kd of ligand).
Each Example number corresponds to the synthetic Examples described above. […] The lower the Ki value, the more affinity for neuronal nicotinic acetylcholine receptors.

mouse hot plate paradigm = mouse hot plate paradigm (analgesia, latency until tenth jump); type: in vivo; details: mice, intraperitoneal, dosed 30 minutes prior to testing, hot plate 55° C.; for Analgesic MED: minimally effective dose among the doses tested; for Analgesic MED (μmol/kg): footnote symbols for no effect
Description: An in vivo protocol was utilized to determine the effectiveness of nicotinic acetylcholine receptor ligands as analgesic agents in the mouse hot plate paradigm.
Separate groups of mice, (n=8/group) were utilized for each dose group. All drugs were administered by the intraperitoneal route of administration. Test drugs were dissolved in water to make a 6.2 mM stock solution. Animals were dosed with this solution (10 mL/kg body weight) for a 62 micromol/kg dose. Lower doses were administered similarly, following serial dilution of the stock solution in half-log increments. Animals were dosed 30 minutes prior to testing in the hot plate. The hot-plate utilized was an automated analgesia monitor (Model #AHP16AN, Omnitech Electronics, Inc. of Columbus, Ohio). The temperature of the hot plate was maintained at 55° C. and a cut-off time of 180 seconds was utilized. A control was run against each compound tested. Latency until the tenth jump was recorded as the dependent measure. An increase in the tenth jump latency relative to the control was considered a significant effect.

[2] = [3H]-CYT 1.25 nM, whole rat brain membranes, 60 minutes at 4° C., Cheng and Prusoff correction, Table 1, read-out: Ki
[3] = [3H]-CYT 1.25 nM, whole rat brain membranes, 60 minutes at 4° C., Cheng and Prusoff correction, Table 2, read-out: K1 (nm)

T1 sequence (P09483 31-630): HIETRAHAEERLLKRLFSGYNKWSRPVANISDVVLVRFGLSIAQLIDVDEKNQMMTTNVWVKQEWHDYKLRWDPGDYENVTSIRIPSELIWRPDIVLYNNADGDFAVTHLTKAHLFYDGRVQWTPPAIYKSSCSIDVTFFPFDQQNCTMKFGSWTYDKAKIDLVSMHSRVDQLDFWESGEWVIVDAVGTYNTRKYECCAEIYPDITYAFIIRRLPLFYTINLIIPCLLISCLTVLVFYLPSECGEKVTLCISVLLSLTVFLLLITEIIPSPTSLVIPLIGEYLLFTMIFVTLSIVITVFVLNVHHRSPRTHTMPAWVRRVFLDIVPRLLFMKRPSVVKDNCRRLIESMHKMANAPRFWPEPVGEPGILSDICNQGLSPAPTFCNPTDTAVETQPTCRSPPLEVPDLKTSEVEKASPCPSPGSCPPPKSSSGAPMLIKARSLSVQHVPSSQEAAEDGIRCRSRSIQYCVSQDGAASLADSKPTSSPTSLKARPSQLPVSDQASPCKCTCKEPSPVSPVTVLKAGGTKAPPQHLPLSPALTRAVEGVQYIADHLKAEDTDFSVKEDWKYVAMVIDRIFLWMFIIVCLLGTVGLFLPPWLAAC
T1 sequence (P12390 25-500): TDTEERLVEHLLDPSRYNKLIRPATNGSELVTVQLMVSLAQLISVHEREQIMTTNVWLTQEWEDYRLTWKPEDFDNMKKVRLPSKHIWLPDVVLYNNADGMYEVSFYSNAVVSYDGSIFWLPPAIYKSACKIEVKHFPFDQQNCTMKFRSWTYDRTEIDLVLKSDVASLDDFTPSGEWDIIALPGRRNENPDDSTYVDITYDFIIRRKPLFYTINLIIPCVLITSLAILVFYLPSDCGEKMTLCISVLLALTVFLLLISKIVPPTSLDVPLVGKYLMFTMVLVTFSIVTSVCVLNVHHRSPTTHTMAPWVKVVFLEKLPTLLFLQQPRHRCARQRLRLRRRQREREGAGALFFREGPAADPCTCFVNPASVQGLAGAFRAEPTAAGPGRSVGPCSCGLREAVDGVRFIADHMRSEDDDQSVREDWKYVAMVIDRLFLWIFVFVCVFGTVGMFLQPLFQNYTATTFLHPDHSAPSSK

Compound	Ki [1, 2] [nM]	also measured
C[C@H](N)COc1ccc(F)nc1.Cc1ccc(S(=O)(=O)O)cc1 [Example 4, 5-[(S)-2-amino-1-propyloxy]-2-fluoro pyridine p-toluenesulfonic acid]	8.69	Analgesic MED (mouse hot plate paradigm): 6.2 µmol/kg
Cc1cc(OC[C@H](C)N(C)C)cnc1Cl.Cc1ccc(S(=O)(=O)O)cc1 [Example 11, 5-[(S)-2-dimethylamino-1-propyloxy]-2-chloro-3-methyl pyridine p-toluenesulfonic acid]	9.6	Analgesic MED (μmol/kg) (mouse hot plate paradigm): * (no effect at 62)
CN[C@H](C)COc1cnc(Cl)c(Br)c1.Cc1ccc(S(=O)(=O)O)cc1 [Example 34, 5-[(R)-2-methylamino-1-propyloxy]-2-chloro-3-bromo pyridine p-toluenesulfonic acid]	1.48	Analgesic MED (μmol/kg) (mouse hot plate paradigm): * (no effect at 62)
5-[(S)-2-amino-1-butyloxy]-2-chloro-3-(4-vinylpyridinyl) pyridine di-p-toluenesulfonic acid [Example 19]	0.18	–
C[C@@H](COc1ccc(Cl)nc1)N(C)C.Cc1ccc(S(=O)(=O)O)cc1 [Example 2, 5-[(S)-2-dimethylamino-1-propyloxy]-2-chloro pyridine p-toluenesulfonic acid]	–	Analgesic MED (mouse hot plate paradigm): 62 µmol/kg
C[C@@H](N)COc1cnc(Cl)c(C=Cc2ccncc2)c1 [Example 38, 5-[(R)-2-amino-1-propyloxy]-2-chloro-3-(4-vinylpyridinyl) pyridine p-toluenesulfonic acid]	0.0809	–
CC[C@H](N)COc1cnc(Cl)c(Br)c1.Cc1ccc(S(=O)(=O)O)cc1 [Example 18, 5-[(S)-2-amino-1-butyloxy]-2-chloro-3-bromo pyridine p-toluenesulfonic acid]	14.8	Analgesic MED (μmol/kg) (mouse hot plate paradigm): * (no effect at 62)
CC(COc1ccc(Cl)nc1)N(C)C (stereo in doubt) [Example 27, 5-[(S)-2-dimethylamino-1-propyloxy]-2-chloro pyridine p-toluenesulfonic acid]	–	Analgesic MED (μmol/kg) (mouse hot plate paradigm): * (no effect at 62)
C[C@@H](COc1cnc(Cl)c(Br)c1)N(C)C.Cc1ccc(S(=O)(=O)O)cc1 [Example 8, 5-[(S)-2-dimethylamino-1-propyloxy]-2-chloro-3-bromo pyridine p-toluenesulfonic acid]	30.8	Analgesic MED (mouse hot plate paradigm): 62 µmol/kg
CC(N)CCOc1cnc(Cl)c(Br)c1 (stereo not drawn) [Example 47, 5-(3-Amino-1-butyloxy)-2-chloro-3-bromo-pyridine p-toluenesulfonic acid]	–	Ki [1, 3]: 31 nM
CCCN[C@H](C)COc1ccc(Cl)nc1 [Example 42, 5-[(R)-2-(1-propyl)amino-1-propyloxy]-2-chloro pyridine p-toluenesulfonic acid]	7530	–
Cc1cc(OC[C@H](C)N)cnc1Cl.Cc1ccc(S(=O)(=O)O)cc1 [Example 10, 5-[(S)-2-amino-1-propyloxy]-2-chloro-3-methyl pyridine p-toluenesulfonic acid]	0.525	Analgesic MED (mouse hot plate paradigm): 62 µmol/kg
5-[(S)-2-amino-3-phenyl-1-propyloxy]-2-chloro-3-(4-vinylpyridinyl) pyridine di-p-toluenesulfonic acid [Example 23]	9.89	Analgesic MED (μmol/kg) (mouse hot plate paradigm): * (no effect at 62)
C[C@H](N)COc1cnc(Cl)c(C=Cc2ccncc2)c1.Cc1ccc(S(=O)(=O)O)cc1 [Example 13, 5-[(S)-2-amino-1-propyloxy]-2-chloro-3-(4-vinylpyridinyl) pyridine p-toluenesulfonic acid]	0.0761	Analgesic MED (μmol/kg) (mouse hot plate paradigm): * (no effect at 62)
Cc1cc(OCCC(C)N)cnc1Cl (stereo not drawn) [Example 49, 5-(3-Amino-1-butyloxy)-2-chloro-3-methyl-pyridine p-toluenesulfonic acid]	–	Ki [1, 3]: 25 nM
C[C@H](COc1cnc(Cl)c(Br)c1)N(C)C [Example 33, 5-[(R)-2-dimethylamino-1-propyloxy]-2-chloro-3-bromo pyridine p-toluenesulfonic acid]	11.9	–
5-[(S)-2-methylamino-3-phenyl-1-propyloxy]-2-chloro-3-(4-vinylpyridinyl) pyridine di-p-toluenesulfonic acid [Example 25]	2.61	–

Compound	Ki [1, 2] [nM]	also measured
CN[C@@H](C)COc1cnc(Cl)c(Br)c1.Cc1ccc(S(=O)(=O)O)cc1 [Example 9, 5-[(S)-2-methylamino-1-propyloxy]-2-chloro-3-bromo pyridine p-toluenesulfonic acid]	10.9	Analgesic MED (μmol/kg) (mouse hot plate paradigm): ** (no effect at 6.2)
CN(C)[C@H](COc1cnc(Cl)c(Br)c1)Cc1ccccc1 [Example 22, 5-[(S)-2-dimethylamino-3-phenyl-1-propyloxy]-2-chloro-3-bromo pyridine p-toluenesulfonic acid]	319	–
Cc1cc(OCCC(C)N(C)C)cnc1Cl (stereo not drawn) [Example 48, 5-(3-dimethylamino-1-butyloxy]-2-chloro-methylpyridine p-toluenesulfonic acid]	–	Ki [1, 3]: 1.3 nM
CC[C@@H](COc1ccc(F)nc1)NC [Example 17, 5-[(S)-2-methylamino-1-butyloxy]-2-fluoro pyridine p-toluenesulfonic acid]	225	–
N[C@H](COc1cnc(Cl)c(Br)c1)Cc1ccccc1 [Example 21, 5-[(S)-2-amino-3-phenyl-1-propyloxy]-2-chloro-3-bromo pyridine p-toluenesulfonic acid]	102	–
5-[(R)-2-methylamino-1-propyloxy]-2-chloro-3-(4-vinylpyridinyl) pyridine p-toluenesulfonic acid [Example 40]	0.0757	–
CC(CCOc1cnc(Cl)c(Br)c1)N(C)C (stereo not drawn) [Example 46, 5-(3-Dimethylamino-1-butyloxy)-2-chloro-3-bromopyridine p-toluenesulfonic acid]	–	Ki [1, 3]: 3.1 nM
CC(CCOc1ccc(Cl)nc1)N(C)C (stereo not drawn) [Example 45, 5-(3-Dimethylamino-1-butyloxy]-2-chloro pyridine p-toluenesulfonic acid]	–	Ki [1, 3]: 18 nM
Cc1cc(OC[C@@H](C)N)cnc1Cl.Cc1ccc(S(=O)(=O)O)cc1 [Example 35, 5-[(R)-2-amino-1-propyloxy]-2-chloro-3-methyl pyridine p-toluenesulfonic acid]	0.985	Analgesic MED (mouse hot plate paradigm): 62 µmol/kg
CN[C@@H](C)COc1ccc(F)nc1.Cc1ccc(S(=O)(=O)O)cc1 [Example 6, 5-[(S)-2-methylamino-1-propyloxy]-2-fluoro pyridine p-toluenesulfonic acid]	68.9	Analgesic MED (μmol/kg) (mouse hot plate paradigm): * (no effect at 62)
CN[C@H](C)COc1cnc(Cl)c(C)c1.Cc1ccc(S(=O)(=O)O)cc1 [Example 37, 5-[(R)-2-methylamino-1-propyloxy]-2-chloro-3-methyl pyridine p-toluenesulfonic acid]	0.565	Analgesic MED (μmol/kg) (mouse hot plate paradigm): * (no effect at 62)
CC[C@H](N)COc1ccc(Cl)nc1.Cc1ccc(S(=O)(=O)O)cc1 [Example 15, 5-[(S)-2-amino-1-butyloxy]-2-chloro pyridine p-toluenesulfonic acid]	14.7	Analgesic MED (μmol/kg) (mouse hot plate paradigm): * (no effect at 62)
CC(N)COc1ccc(Cl)nc1 (stereo in doubt) [Example 26, 5-[(S)-2-amino-1-propyloxy]-2-chloro pyridine p-toluenesulfonic acid]	–	Ki ([1]; Ki (nM)): 5.34 nM; Analgesic MED (mouse hot plate paradigm): 62 µmol/kg
CC(N)CCOc1ccc(F)nc1 (stereo not drawn) [Example 43, 5-(3-Amino-1-butyloxy)-2-fluoro pyridine p-toluenesulfonic acid]	–	Ki [1, 3]: 122 nM
CCN[C@H](C)COc1ccc(Cl)nc1 [Example 41, 5-[(R)-2-ethylamino-1-propyloxy]-2-chloro pyridine p-toluenesulfonic acid]	2310	–
CC(N)CCOc1ccc(Cl)nc1 (stereo not drawn) [Example 44, 5-(3-Amino-1-butyloxy)-2-chloropyridine p-toluenesulfonate]	–	Ki [1, 3]: 20 nM
CC[C@H](N)COc1ccc(F)nc1 [Example 16, 5-[(S)-2-amino-1-butyloxy]-2-fluoro pyridine p-toluenesulfonic acid]	39.5	–
